These results are taken from patent publication US20050020993A1, “Administration of therapeutic or diagnostic agents using interlabial pad” (priority 2001, published 2005).

The nature of this data set: circulating plasma concentration of estradiol from an ILP system in HRT. The conditions noted are these: ILP (interlabial pad) system releasing 100 mg/day of estradiol as its 3-acetate ester; hormone replacement therapy. The data set is classed as in vivo. An excerpt: In one embodiment, a kit is provided for administering the medication from the drug delivery device. The kit includes an interlabial pad, and a package such as a plastic vial or a plastic or foil container, for packaging the interlabial pad. The kit can also include directions for the use of the pad. The pad can contain a unit dose of the medication, for example an anti-infective, such as gynelotrimin. Another example is the delivery of estradiol to treat vaginal atrophy or for hormone replacement therapy (HRT). In HRT, and ILP system releasing […] of estradiol as its 3-acetate ester maintains a circulating plasma concentration of 300 pmol/L of the drug, which is within the clinically desirable range for HRT.

Compound `C[C@]12CC[C@@H]3c4ccc(O)cc4CC[C@H]3[C@@H]1CC[C@@H]2O` [estradiol] registered a circulating plasma concentration of 300 pmol/L.
